Data set [1] can be described thus: photostability under 635 nm laser irradiation. Particulars: 30 min, 20 mW/cm^2, FIG. 9. The data set is classed as physicochemical. The protocol:
FIG. 9 is a comparison diagram of photostabilities of the hypocrellin derivative prepared in the present invention and a commercial photosensitizer. […] However, in the same condition, after being irradiated with a 635 nm laser for 30 min at a light intensity of 20 mW/cm^2, maximum absorption performance of the commercial porphin photosensitizer Ce6 is decreased by 30% (curve c); and an absorption spectrum of the commercial hematoporphyrin photosensitizer HpD is decreased more, reaching about 50% (curve d). Therefore, in the same condition, the hypocrellin derivative prepared in the present invention has a better photostability than the commercial photosensitizers.

Data set [2] is described as follows: absorption spectrum (maximum absorption wavelength, molar extinction coefficient). The data set is classed as physicochemical.
The nature of data set [3]: singlet oxygen efficiency test, reference rose bengal. Particulars: for singlet oxygen efficiencies: comparison with reference rose bengal RB, FIG. 7. In kind it is physicochemical.
Data set [4] relates to Hela cells. Briefly: photo-cytotoxicity experiment (MTT, 635 nm laser). In kind it is cell-based. The protocol:
Photo-cytotoxicity experiment on cell: cultured Hela cells were digested and pipetted with 0.25% trypsin and to prepare a single-cell suspension, the number of cells was adjusted to about 2×10^4 per milliliter, and 200 uL of the suspension was seeded in a well of a 96-well culture plate, which is placed in a 37° C. incubator containing 5% CO2 for cultivation. After the cells adhere to the wall, a supernatant culture solution was discarded, and photosensitizers of different concentrations, that is, the hematoporphyrin derivative HpD, the hypocrellin B HB, or HB-1c-PEG6 synthesized in example 3, were added in a strictly lucifugous condition in accordance with experimental designs, and the culture plate was placed in the 37° C. incubator containing 5% CO2 for further cultivation and incubation for 1 hour. Then, a semiconductor laser with a wavelength of 635 nm was used for irradiation, a power density was adjusted to 20 mW/cm^2, light beams were evenly and vertically applied onto the 96-well culture plate, and an irradiation time was 1000 S. In addition, each 96-well culture plate is provided with a blank group, and 6 holes were provided for in each condition. After irradiation, the culture plate was placed in the 37° C. incubator containing 5% CO2 for further cultivation and incubation for 24 hours, and then a cellular survival rate was measured. The cellular survival rate was measured by means of the MTT method. 20 uL of MTT was added to each well, wherein the MTT is MTT prepared with PBS and having a concentration of 5 mg/ml. The culture plate was placed in the 37° C. incubator containing 5% CO2 for further cultivation for 4 hours, after which the cultivation was terminated. A supernatant in the well was extracted and discarded carefully. Then, 150 uL of dimethyl sulfoxide (DMSO) was added to each well, and the culture plate was shaken by using a micro shaker for 10 minutes to fully dissolve a purple crystal substance. A wavelength of 570 nm was selected to measure an optical density value (i.e., OD value) of each well on a microplate reader, and the cellular survival rate was calculated in accordance with the following formula: cellular survival rate=OD value of an experimental group/OD value of a blank group×100%.

Data set [5] relates to Hela cells. The experiment in a line: dark cytotoxicity experiment (MTT). The settings on record: for cytotoxicity when not exposed to light: dark. As to the method:
Dark cytotoxicity experiment: cultured Hela cells were digested with 0.25% trypsin and pipetted to prepare a single-cell suspension, the number of cells was adjusted to about 2×10^4 per milliliter, and 200 uL of the suspension was seeded in a well of a 96-well culture plate, which is placed in a 37° C. incubator containing 5% CO2 for cultivation. […] A cellular survival rate was measured by means of the MTT method. 20 uL of MTT was added to each well, wherein the MTT is MTT prepared with PBS and having a concentration of 5 mg/ml. The culture plate was placed in the 37° C. incubator containing 5% CO2 for further cultivation for 4 hours, after which the cultivation was terminated. A supernatant in the well was extracted and discarded carefully. Then, 150 uL of dimethyl sulfoxide was added to each well, and the culture plate was shaken by using a micro shaker for 10 minutes to fully dissolve a purple crystal substance. A wavelength of 570 nm was selected to measure an optical density value (i.e., OD value) of each well on a microplate reader, and the cellular survival rate was calculated in accordance with the following formula: cellular survival rate=OD value of an experimental group/OD value of a blank group×100%.

Data set [6] can be described thus: reactive oxygen measurement with singlet oxygen and superoxide radical scavengers. In kind it is physicochemical. The settings on record: FIG. 6(a), 6(b). The text has this:
FIGS. 7(a)-7(d) show efficiency curves of measuring singlet oxygen of HB-1c and HC-1c. From the comparison with a reference rose bengal RB, it can be seen that the singlet oxygen efficiencies of HB-1c and HC-1c are respectively 0.40 and 0.38.

For the next data set, the system named is singlet oxygen in a cell. The experiment in a line: detection of singlet oxygen in a cell with fluorescence probe DCFH-DA. In kind it is cell-based. Particulars: co-incubation with DCFH-DA, irradiation time to 60 s, FIG. 11. From the text: DCFH-DA is used to detect singlet oxygen in a cell.
Data set [7] is described as follows: pH stability of absorption spectrum. In kind it is physicochemical. Particulars: pH range of 6.2-8.0, FIG. 8. From the text: Therefore, the hypocrellin derivative prepared in the present invention has a better pH stability than the commercial hematoporphyrin HpD in the pH range of 6.2-8.0.
Data set [8] in a line: water solubility in normal saline. The settings on record: per milliliter of normal saline. The data set is classed as physicochemical. As to the method:
Most of photosensitizer molecules disclosed in this patent contain a large number of hydrophilic groups, such as a polyethylene glycol chain, a quaternary ammonium salt, a carboxyl group, and a sulfonic acid group, etc., making the photosensitizer molecules have very high water solubility in a physiological condition; and experiments indicate that each milliliter of normal saline or glucose injection can dissolve more than 5 mg of such the photosensitizer molecules, presenting excellent water solubility. Therefore, the photosensitive drug can be well transported in blood vessels during intravenous injection, without causing a vascular blockage. HB-1c-C2-N+ prepared in example 4 contains two quaternary ammonium salts, and each milliliter of normal saline can dissolve more than 20 mg of photosensitizer molecules; HC-1c-PEG6 prepared in example 6 contains two 6-PEG chains, and each milliliter of normal saline can dissolve more than 20 mg of photosensitizer molecules; HB-8c prepared in example 19 contains two carboxyl groups, and each milliliter of normal saline can dissolve more than 10 mg of photosensitizer molecules; HB-13c prepared in example 35 contains two carboxyl groups, and each milliliter of normal saline can dissolve more than 10 mg of photosensitizer molecules; and HB-13c-PEG8 prepared in example 37 contains two 8-PEG chains, and each milliliter of normal saline can dissolve more than 20 mg of photosensitizer molecules. These photosensitizer molecules all present excellent water solubility.

“Also recorded” adds a separate entry of the source.

`C=Cc1c(C)c2cc3nc(c(CC(=O)O)c4[nH]c(cc5nc(cc1[nH]2)C(C)=C5CC)c(C)c4C(=O)O)[C@@H](CCC(=O)O)[C@@H]3C` [Ce6, reference compound]: the “decrease of absorption intensity at the maximum wavelength” value (“decrease of absorption intensity” for short) in data set [1] worked out at 30%. In data set [2], the maximum absorption wavelength is on record as 650 nm and the molar extinction coefficient entry is on record as “less than 20000 M^−1cm^−1”.

The compound `COCCOCCOCCOCCOCCOCCOCCC(=O)OCCOCCNc1c2c3c4c(c(OC)c(=O)c5c(O)cc(OC)c(c6c(OC)cc(NCCOCCOC(=O)CCOCCOCCOCCOCCOCCOCCOC)c(c1=O)c63)c54)C(C(C)=O)C(C)=C2` (centres unmarked) [HB-1c-PEG6] gave a singlet oxygen yield in data set [3] of 34%. In addition, in the data set on Hela cells [4] (160 nM, 635 nm laser, FIG. 12(b)), the Hela cells killed result is given as “more than 90%”. Moreover, the “cytotoxicity (dark toxicity)” value in the data set on Hela cells [5] (10 μM, incubated half hour, FIG. 12(a)) was “basically non-cytotoxic”. Further, in data set [2], the maximum absorption wavelength was 628 nm and the molar extinction coefficient is reported as 34,500 M^−1cm^−1.

In turn, `COc1c2c3c4c(c(NCCOCCO)c(=O)c5c(NCCOCCO)cc(OC)c(c6c(OC)cc(O)c(c1=O)c63)c54)C=C(C)C2C(C)=O` (centres unmarked) [HB-1c] gave a singlet oxygen efficiencies in data set [3] of 0.40. Further, the “photosensitive reactive species produced” value in [6] is recorded as “primarily producing singlet oxygen”.

Regarding `COCCOCCOCCOCCOCCOCCOCCC(=O)OCCOCCNc1c2c3c4c(c(OC)c(=O)c5c(O)cc(OC)c(c6c(OC)cc(NCCOCCOC(=O)CCOCCOCCOCCOCCOCCOCCOC)c(c1=O)c63)c54)CC(C)=C2` [HC-1c-PEG6], the “singlet oxygen in the cell (DCFH-DA green fluorescence)” value in the data set on singlet oxygen in a cell is recorded as “green fluorescence intensity is gradually increased”. In data set [3], this compound gave a singlet oxygen yield of 34%. Besides, in data set [7], the “pH stability, change in absorption spectrum” value is reported as “good pH stability; also recorded: no obvious change”. Also, the Hela cells killed result in the data set with Hela cells [4] (140 nM, 635 nm light, FIG. 13(b)) was “more than 90%”. In addition, the “amount dissolved by each milliliter of normal saline” value in data set [8] is on record as “more than 20 mg”. In addition, the “cytotoxicity when not exposed to light” value in the data set with Hela cells [5] is reported as “almost no cytotoxicity”. Besides, in data set [2], the maximum absorption wavelength is 628 nm and the molar extinction coefficient is given as 33,500 M^−1cm^−1.

Consider `COc1c2c3c4c(c(NCCOCCO)c(=O)c5c(NCCOCCO)cc(OC)c(c6c(OC)cc(O)c(c1=O)c63)c54)C=C(C)C2` [HC-1c], for which, in data set [3], the singlet oxygen yield stood at 38% and the singlet oxygen efficiencies is on record as 0.38. For the same compound, the “pH stability, change in absorption spectrum” value in [7] was “no obvious change”. Further, in data set [2], the molar extinction coefficient is recorded as 30,000 M^−1cm^−1.

For `COc1c2c3c4c(c(NCCO)c(=O)c5c(NCCO)cc(OC)c(c6c(OC)cc(O)c(c1=O)c63)c54)C=C(C)C2` [HC-2c], the “decrease of absorption intensity” value in data set [1] was “less than 10%”. In addition, the singlet oxygen yield in [3] turned out to be 40%. Further, in [2], the maximum absorption wavelength is listed as 636 nm and the molar extinction coefficient is given as 31,000 M^−1cm^−1.

Turning to `COCCOCCOCCOCCOCCOCCOCCC(=O)OCCNc1c2c3c4c(c(OC)c(=O)c5c(NCCOC(=O)CCOCCOCCOCCOCCOCCOCCOC)cc(OC)c(c6c(OC)cc(O)c(c1=O)c63)c54)CC(C)=C2` [HC-2d-PEG6], in [1], the “decrease of absorption intensity” value is reported as “less than 10%”. The compound further yielded a singlet oxygen yield in data set [3] of 32%. Further, in [2], the maximum absorption wavelength came to 624 nm and the molar extinction coefficient is listed as 31,500 M^−1cm^−1.

Compound `COCCOCCOCCOCCOCCOCCOC(=O)CCCNc1c2c3c4c(c(OC)c(=O)c5c(O)cc(OC)c(c6c(OC)cc(NCCCC(=O)OCCOCCOCCOCCOCCOCCOC)c(c1=O)c63)c54)CC(C)=C2` [HC-8c-PEG6] yielded a singlet oxygen yield in data set [3] of 36%. Further, in the data set on Hela cells [4] (240 nM, 635 nm light, FIG. 15(b)), the Hela cells killed entry was “more than 90%”. In the data set with Hela cells [5], the “cytotoxicity when not exposed to light” value is listed as “almost no cytotoxicity”. In addition, in data set [2], the maximum absorption wavelength came to 632 nm and the molar extinction coefficient is reported as 31,500 M^−1cm^−1.

The values above are taken from US11439707B2, “Hypocrellin derivative substituted both in a peri-position and in 2-position by amino, preparation method, and application thereof” (priority 2017, dated 2022).
